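Compound exposure: 48 hours, 5 concentrations, 96-well plates. At the TGI there is no net growth.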 Where a SMILES comes first, the peptide text is derived from it. [ ]: non-standard residue; d: D form. The star is where a group is joined. ξ: configuration not given here. ξD = NC(CC(=O)O)C(=O)O; Boc = CC(C)(C)OC(=O)*; Aib = CC(C)(N)C(=O)O; OBn = c1ccc(CO*)cc1
Columns and labels:
Experiment in all cases: NCI tumour cell line growth inhibition, 48 h
CAKI-1 renal = system: CAKI-1 renal
HCT-15 colon = system: HCT-15 colon
HL-60(TB) leukemia = system: HL-60(TB) leukemia
HT29 colon = system: HT29 colon
IGROV1 ovarian = system: IGROV1 ovarian
KM12 colon = system: KM12 colon
MCF7 breast = system: MCF7 breast
MDA-N = system: MDA-N
MOLT-4 leukemia = system: MOLT-4 leukemia
NCI/ADR-RES ovarian = system: NCI/ADR-RES ovarian
OVCAR-3 ovarian = system: OVCAR-3 ovarian
SF-268 CNS = system: SF-268 CNS
SF-295 CNS = system: SF-295 CNS
SF-539 CNS = system: SF-539 CNS
TK-10 renal = system: TK-10 renal
U251 CNS = system: U251 CNS
HCC-2998 colon = system: HCC-2998 colon
HS 578T breast = system: HS 578T breast
RXF 393 renal = system: RXF 393 renal

Row | SMILES | TGI (CAKI-1 renal) [µM] | TGI (HCT-15 colon) [µM] | TGI (HL-60(TB) leukemia) [µM] | TGI (HT29 colon) [µM] | TGI (IGROV1 ovarian) [µM] | TGI (KM12 colon) [µM] | TGI (MCF7 breast) [µM] | TGI (MDA-N) [µM] | TGI (MOLT-4 leukemia) [µM] | TGI (NCI/ADR-RES ovarian) [µM] | TGI (OVCAR-3 ovarian) [µM] | TGI (SF-268 CNS) [µM] | TGI (SF-295 CNS) [µM] | TGI (SF-539 CNS) [µM] | TGI (TK-10 renal) [µM] | TGI (U251 CNS) [µM] | TGI (HCC-2998 colon) [µM] | TGI (HS 578T breast) [µM] | TGI (RXF 393 renal) [µM]
1 | N#CC(O)CCOCc1ccccc1 (stereo not drawn) | 35.6 | > 100 | > 100 | > 100 | > 100 | > 100 | > 100 | > 100 | 14.8 | > 100 | > 100 | > 100 | > 100 | > 100 | > 100 | > 100 | – | – | –
2 | Cn1cc(NC(=O)Nc2cc(C(=O)Nc3cc(C(=O)Nc4ccc5cc(S(=O)(=O)O)cc(S(=O)(=O)O)c5c4)n(C)c3)n(C)c2)cc1C(=O)Nc1cc(C(=O)Nc2ccc3cc(S(=O)(=O)O)cc(S(=O)(=O)O)c3c2)n(C)c1 | – | > 100 | > 100 | > 100 | > 100 | > 100 | > 100 | > 100 | > 100 | > 100 | > 100 | > 100 | > 100 | > 100 | > 100 | > 100 | > 100 | > 100 | > 100
3 | O=C(NC(CS)C(=O)O)c1c2ccccc2nc2ccccc12 (stereo not drawn) | > 100 | > 100 | > 100 | > 100 | > 100 | > 100 | > 100 | > 100 | > 100 | > 100 | > 100 | > 100 | > 100 | > 100 | > 100 | > 100 | > 100 | – | –
4 | CCCC(=O)OCC1OC(n2cc(F)c(=O)[nH]c2=O)C(F)C1O (stereo not drawn) | – | > 100 | > 100 | > 100 | > 100 | > 100 | > 100 | > 100 | > 100 | > 100 | > 100 | > 100 | > 100 | > 31.6 | > 100 | > 100 | > 100 | > 100 | > 100
5 | O=C(C[C@@H]1CCCN2CCCC[C@H]12)N1c2ccccc2Sc2ccc(Cl)cc21 | 27.6 | 30.4 | 36.8 | 22.8 | 25.6 | 27.6 | 35.5 | 30.9 | 30 | 29.4 | 31.9 | 42.8 | 36.7 | 32.1 | 35.5 | 24.4 | – | 38.5 | 29
6 | O=c1c2ccccc2n2c(-c3ccccc3O)nnc2n1-c1ccccc1 | > 100 | > 100 | > 100 | > 100 | > 100 | > 100 | > 100 | > 100 | > 100 | > 100 | > 100 | > 100 | > 100 | > 100 | > 100 | > 100 | > 100 | – | > 100
7 | CC(C)CC(=O)CC(C)[C@]1(CCCOCc2ccccc2)C(=O)N2CCC3(C[C@@]24CCC[C@H]41)OCCO3 (stereo partly drawn) | > 10 | > 10 | > 10 | – | > 10 | > 10 | > 10 | > 10 | > 10 | > 10 | > 10 | > 10 | > 10 | > 10 | > 10 | > 10 | > 10 | – | –
8 | CCOC(=O)C1CCCc2sc(N)c(C#N)c21 (stereo not drawn) | – | > 100 | > 100 | > 100 | > 100 | > 100 | > 100 | > 100 | > 100 | – | – | – | – | – | > 100 | > 100 | > 100 | > 100 | > 100
9 | Oc1ccc(Br)cc1C=Nc1c(NC2CCCCC2)oc2ccc(Br)cc12 | > 100 | > 100 | 21.8 | 78.4 | > 100 | > 100 | 83.2 | > 100 | – | > 100 | 68.6 | > 100 | > 100 | > 100 | > 100 | > 100 | > 100 | – | 27.1
10 | Cc1ccc(S(=O)(=O)C2=Cc3ccccc3C2(O)c2ccccc2)cc1 (stereo not drawn) | – | > 100 | 29.6 | 36.1 | > 100 | 37.6 | – | 48.2 | > 100 | 76.6 | – | > 100 | 76.9 | 47.5 | > 100 | 87.7 | 91.3 | 81.9 | –
11 | NCCCN(CCCCN(CCCN)Cc1ccccc1)Cc1ccccc1 | 31.9 | > 100 | > 100 | 44.1 | 37.1 | > 100 | 60.5 | 33.1 | 46 | > 100 | – | 37.1 | > 100 | > 100 | > 100 | > 100 | 22.7 | 35.7 | > 100
12 | Cc1nc(C(N)=S)sc1C(=O)CC(=O)C(=O)Nc1ccc(Br)cc1 | > 100 | > 100 | > 100 | > 100 | > 100 | > 100 | > 100 | > 100 | – | > 100 | > 100 | > 100 | > 100 | > 100 | > 100 | > 100 | – | > 100 | > 100
13 | CC(C)C1=Cc2ccc3c(c2C(=O)C1=O)CCCC3 | 2.15 | 9.03 | 1.95 | 25.1 | 12.1 | 32.4 | – | 19.3 | – | 52.1 | 5.33 | 16.6 | 25.8 | 16.9 | 6.55 | 42.4 | 30.9 | 55.9 | 7.82
14 | COc1cccc([C@@H]2C/C(=N\NC(=O)C(=O)N[C@@H](C)c3ccccc3)c3ccccc3N2)c1 | > 100 | > 100 | – | – | – | > 100 | > 100 | > 100 | 34.8 | > 100 | > 100 | > 100 | > 100 | 30.4 | > 100 | > 100 | > 100 | > 100 | > 100
15 | CC(C)(C)OC(=O)NC(CC(=O)OCc1ccccc1)C(=O)NC(C)(C)C(N)=O (stereo not drawn) (Boc-[ξD](OBn)-[Aib]-NH2) | > 100 | > 100 | – | > 100 | > 100 | > 100 | > 100 | > 100 | > 100 | > 100 | > 100 | > 100 | > 100 | > 100 | > 100 | > 100 | – | > 100 | > 100
16 | CCOC(=O)c1cc(=O)c2cccc3c2n1CCS3 | > 100 | > 100 | > 100 | > 100 | > 100 | > 100 | > 100 | > 100 | > 100 | > 100 | > 100 | > 100 | > 100 | > 100 | > 100 | > 100 | – | > 100 | –
17 | O=C1NC(=O)C(CCC(=O)c2cccc3ccccc23)C(=O)N1 | > 100 | > 100 | > 100 | > 100 | – | > 100 | > 100 | > 100 | > 100 | > 100 | > 100 | > 100 | > 100 | > 100 | – | > 100 | > 100 | > 100 | > 100
18 | CC(C(=O)NCNC(=O)c1ccccc1)C(=O)Nc1ccccc1 (stereo not drawn) | > 100 | > 100 | > 100 | > 100 | > 100 | > 100 | > 100 | > 100 | – | > 100 | – | > 100 | > 100 | > 100 | > 100 | > 100 | – | > 100 | > 100
19 | COc1c(Sc2c(SCSc3cnc4ccccc4c3Sc3cnc4ccccc4c3OC)cnc3ccccc23)cnc2ccccc12 | > 100 | > 100 | 26.3 | > 100 | > 100 | > 100 | – | > 100 | > 100 | > 100 | > 100 | > 100 | > 100 | > 100 | > 100 | > 100 | > 100 | > 100 | –
20 | Cc1cc(C)c(/C=C2\C(=O)Nc3ccccc32)[nH]1 | > 100 | > 100 | > 34.1 | > 100 | – | – | > 100 | > 100 | > 100 | > 100 | > 100 | > 100 | > 100 | > 100 | > 100 | > 100 | > 100 | > 100 | > 100
21 | CCC1C(NC(=O)OC)C(=O)N1[C@@H](C)c1ccccc1 (stereo partly drawn) | > 100 | > 100 | – | > 100 | > 100 | > 100 | > 100 | > 100 | > 100 | > 100 | > 100 | > 100 | > 100 | > 100 | > 100 | > 100 | > 100 | > 100 | > 100
22 | CCOC(=O)c1c(NC(=S)Nc2ccccc2)sc2c1CCN(C)C2 | > 100 | > 100 | > 100 | > 100 | > 100 | > 100 | > 100 | > 100 | > 100 | > 100 | > 100 | > 100 | > 100 | > 100 | > 100 | – | – | > 100 | > 100
23 | COc1cc(/C=C2\CCC(C)C3=C2N=c2s/c(=C/c4ccc(Cl)cc4)c(=O)n2C3c2cc(OC)c(OC)c(OC)c2)cc(OC)c1OC (stereo not drawn) | > 100 | > 100 | > 100 | > 100 | > 100 | > 100 | > 100 | > 100 | > 100 | – | – | > 100 | – | – | > 100 | > 100 | – | > 100 | > 100
24 | COc1cc(C2c3cc4c(cc3OC(NNC(N)=S)C2C)OCO4)cc(OC)c1OC (stereo not drawn) | 36.3 | > 100 | 0.631 | 2.6 | > 100 | > 35.6 | > 100 | > 100 | – | > 100 | > 57.6 | > 100 | 0.884 | 0.523 | > 100 | > 42.9 | 18.7 | > 100 | –
25 | CCOC(=O)C(=[N+]=[N-])C(=O)CSC#N | > 100 | > 100 | > 100 | > 100 | > 100 | > 100 | > 100 | > 100 | > 100 | > 100 | – | > 100 | > 100 | 47.1 | > 100 | > 100 | – | > 100 | > 100
26 | COCN1C(=O)[C@@H]2C[C@@H](O)CN2C(=O)c2ccccc21 | > 100 | > 100 | > 100 | > 100 | > 100 | > 100 | > 100 | > 100 | > 100 | > 100 | – | > 100 | > 100 | – | > 100 | > 100 | > 100 | > 100 | > 100
27 | Cc1cccc(N=Nc2c(C)nn(C(=O)CC(=O)Nc3ccc(Cl)cc3)c2C)c1 | > 100 | > 100 | > 100 | > 100 | – | > 100 | > 100 | > 100 | > 100 | > 100 | > 100 | > 100 | > 100 | > 100 | > 100 | > 100 | > 100 | > 100 | > 100

— PubChem BioAssay (NCI)
